Measurements: US10502749B1, “Method for patient stratification and drug efficacy monitoring” (New York University, priority 2016, dated 2019)

Tests used:
[1] = test system: Ras, dynamin, Grin2B, and mGlur5; test: Western blot of candidate proteins in brains of FXS and WT littermates after chronic S6K1 inhibitor treatment; format: in vivo, mouse; settings: for Expression of candidate proteins (Ras, dynamin, Grin2B, mGlur5) in brain after treatment: FXS model mice, chronic treatment, 25 mg/kg i.p. daily for 10 days, western blot, 25 mg/kg
Procedure: (§1) PF-4708671 was obtained from Sigma, Mo., USA. Littermate matched mice underwent 10 days of daily 25 mg/kg intraperitoneal injections of PF-4708671 in a vehicle consisting of saline +5% v/v of Tween-80 (Sigma). On day 10, 90 mins after the final injection mice were killed by cervical dislocation and the hippocampus was quickly dissected to yield whole hippocampal lysates. Simultaneously, trunk blood also was collected to monitor peripheral levels of proteins.
Thus, the candidates correlate with improved behavior in the brain. We therefore evaluated if they could be measured and quantified in a peripheral tissue such as blood. Animals were treated as described above with PF-4708671, then animals were euthanized via cervical dislocation and brain tissue was collected on ice and snap frozen. Lysates were then prepared as previously described (Bhattacharya et al, 2016, incorporated herein by reference) and analyzed by western blot.
Brain tissues were obtained immediately following euthanasia, snap frozen and homogenized in lysis buffer containing protease and phosphatase inhibitors. Lysates were then analyzed using Western blotting and the levels of specific candidates was determined using densitometry and comparing them to a known loading control such as actin, Gapdh or transferrin receptor.

Ras = test: Concentration levels of mGluR and Ras in mouse trunk blood after 10 days of treatment; format: in vivo
Procedure: as §1
FXS or wild type mice were treated with an S6K1 inhibitor, PF-4708671 (S6Ki) for 10 days. Concentration levels of the two markers—mGluR and Ras in mouse trunk blood treated with vehicle or the S6Ki were determined. N=3 animals per treatment per genotype were used. Statistical analyses was done using two-way ANOVA (genotype×treatment). P=0.0079 for interaction and p=0.019 for FXS±S6Ki and p=0.16 for WT±S6Ki.

FXS model mice [2] = settings: cited from earlier work
FXS model mice [3] = settings: cited from earlier work; remark: listed apart in the source
FXS model mice [4] = settings: cited from earlier work; remark: listed apart in the source
FXS model mice [5] = settings: cited from earlier work; remark: listed apart in the source

CCc1cncnc1N1CCN(Cc2nc3ccc(C(F)(F)F)cc3[nH]2)CC1 [PF-4708671]
Ras in the brain of FXS mice after S6K1 inhibitor ([1]; FXS mice, brain, FIG. 3): does not change | Expression of candidate proteins (Ras, dynamin, Grin2B, mGlur5) in brain after treatment [1]: rescues expression of 3 protein candidates in brain | Expression of candidate proteins (Ras, dynamin, Grin2B, mGlur5) in brain after treatment ([1]; listed as S6K1 inhibitor): 3 out of 4 are statistically improved | Ras level in trunk blood, greater than WT veh (Ras; FXS mice, vehicle 10 days (printed as FXS+veh)): 31% | Ras level in trunk blood, average (+/-SD) (Ras; FXS mice, vehicle 10 days, N=3 (printed as FXS+veh)): 1.19±0.21 | Candidate proteins (mGluR, Ras) in FXS model mouse blood rescued by treatment (Ras; FXS model mice, trunk blood, 10 days, listed as S6K1 inhibitor): one was rescued | Ras level in trunk blood, less from WT veh (Ras; WT mice, S6Ki 10 days): 32% | Ras level in trunk blood, average (+/-SD) (Ras; WT mice, S6Ki 10 days, N=3): 0.62±0.20 | Increased protein synthesis, rescued by S6K1i (FXS model mice [2]): Both inhibitors rescued | Aberrant social novelty behavior, rescued by S6K1i (FXS model mice [3]): Both inhibitors rescued | Aberrant y-maze reversal learning, rescued by S6K1i (FXS model mice [4]): Both inhibitors rescued | Aberrant spine morphology, rescued by S6K1i (FXS model mice [5]): Both inhibitors rescued
